# Legend:
# [1] = Antiinflammatory activity in […] BV2 cells assessed as inhibition of lipopolysaccharide-induced nitric oxide production at 5 uM incubated for 24 hrs by Griess reagent based assay (reference value: 20.3 +/- 0.1 uM); type: functional, BV-2
# [2] = Antiinflammatory activity in […] BV2 cells assessed as inhibition of lipopolysaccharide-induced nitric oxide production at 20 uM incubated for 24 hrs by Griess reagent based assay (reference value: 20.3 +/- 0.1 uM); type: functional, BV-2
# [3] = Cytotoxic activity against […] BV2 cells assessed as cell viability at 5 uM incubated for 24 hrs by MTT assay (reference value: 100%); type: cell-based, BV-2; settings: read-out: Activity
# [4] = Cytotoxic activity against […] BV2 cells assessed as cell viability at 20 uM incubated for 24 hrs by MTT assay (reference value: 100%); type: cell-based, BV-2; settings: mouse, read-out: Activity
structure (smiles),measurement,setting,value
C=C1C[C@@H](O)[C@@H]2[C@H](OC(=O)[C@H]2C)[C@H]2C(C)=C(O[C@@H]3O[C@H](CO)[C@@H](O)[C@H](O)[C@H]3O)C[C@@H]12,Activity,[1],19.9 µM
same,Activity,[2],17.2 µM
same,"viability at 24 h, 5 µM",[3],108%
same,"viability at 24 h, 20 µM",[4],108%
C=C1C(=O)O[C@@H]2[C@H]3C(C)=C(O[C@@H]4O[C@H](CO)[C@@H](O)[C@H](O)[C@H]4O)C[C@H]3C(=C)C[C@@H](OC(=O)Cc3ccc(O)cc3)[C@@H]12,Activity,[1],18.2 µM
same,Activity,[2],9.3 µM
same,"viability at 24 h, 5 µM",[3],106%
same,"viability at 24 h, 20 µM",[4],103%
C=C1[C@@H]2[C@H]3OC(=O)[C@@H](C)[C@@H]3CCC(=C)[C@@H]2C[C@@H]1O[C@@H]1O[C@H](CO)[C@@H](O)[C@H](O)[C@H]1O,Activity,[1],19.9 µM
same,Activity,[2],18.2 µM
same,"viability at 24 h, 5 µM",[3],116%
same,"viability at 24 h, 20 µM",[4],116%
C=C1[C@@H]2[C@H]3OC(=O)[C@@H](C)[C@@H]3C[C@@H](O)C(=C)[C@@H]2C[C@@H]1O[C@@H]1O[C@H](CO)[C@@H](O)[C@H](O)[C@H]1O,Activity,[1],18.6 µM
same,Activity,[2],17.5 µM
same,"viability at 24 h, 5 µM",[3],102%
same,"viability at 24 h, 20 µM",[4],114%
C=C1[C@@H]2[C@H]3OC(=O)C(=C)[C@@H]3C[C@@H](O)C(=C)[C@@H]2C[C@@H]1O[C@@H]1O[C@H](CO)[C@@H](O)[C@H](O)[C@H]1O,Activity,[1],19.7 µM
same,Activity,[2],18.7 µM
same,"viability at 24 h, 5 µM",[3],110%
same,"viability at 24 h, 20 µM",[4],110%
C=C1C(=O)O[C@@H]2[C@H]3C(=C)[C@@H](O[C@@H]4O[C@H](CO)[C@@H](O)[C@H](O)[C@H]4O)C[C@H]3C(=C)C[C@@H](O)[C@@H]12,Activity,[1],19.8 µM
same,Activity,[2],17.6 µM
same,"viability at 24 h, 5 µM",[3],104%
same,"viability at 24 h, 20 µM",[4],103%
C=C1C[C@@H](O)[C@@H]2[C@H](OC(=O)[C@H]2C)[C@H]2[C@H](C)[C@@H](O[C@@H]3O[C@H](CO)[C@@H](O)[C@H](O)[C@H]3O)C[C@@H]12,Activity,[1],19.6 µM
same,Activity,[2],19.4 µM
same,"viability at 24 h, 5 µM",[3],103%
same,"viability at 24 h, 20 µM",[4],103%
C=C1[C@@H]2[C@H]3OC(=O)[C@@H](C)[C@@H]3[C@H](O)CC(=C)[C@@H]2C[C@@H]1O[C@@H]1O[C@H](CO)[C@@H](O)[C@H](O)[C@H]1O,Activity,[1],20.4 µM
same,Activity,[2],18 µM
same,"viability at 24 h, 5 µM",[3],106%
same,"viability at 24 h, 20 µM",[4],105%
C=C1C(=O)O[C@@H]2[C@H]3C(=C)[C@@H](O[C@@H]4O[C@H](CO)[C@@H](O)[C@H](O)[C@H]4O)C[C@H]3C(=C)C[C@@H](OC(=O)Cc3ccc(O)cc3)[C@@H]12,Activity,[1],20.3 µM
same,Activity,[2],16.3 µM
same,"viability at 24 h, 5 µM",[3],106%
same,"viability at 24 h, 20 µM",[4],109%
C=C1C(=O)O[C@@H]2[C@H]3C(=C)[C@@H](O[C@@H]4O[C@H](CO)[C@@H](O)[C@H](O)[C@H]4O)C[C@H]3C(=C)C[C@@H](OC(=O)C(O)C(C)C)[C@@H]12 (stereo not given in full),Activity,[1],21.5 µM
same,Activity,[2],18.2 µM
same,"viability at 24 h, 5 µM",[3],105%
same,"viability at 24 h, 20 µM",[4],97.5%
CC1=C2[C@H]3OC(=O)[C@@H](C)[C@@H]3CC[C@@]2(C)[C@H](O)CC1,Activity,[1],17.9 µM
same,Activity,[2],17.7 µM
same,"viability at 24 h, 5 µM",[3],110%
same,"viability at 24 h, 20 µM",[4],110%
CC1=CC[C@@H](O[C@@H]2O[C@H](CO)[C@@H](O)[C@H](O)[C@H]2O)[C@]2(C)CC[C@@H]3[C@H](OC(=O)[C@H]3C)[C@@H]12,Activity,[1],18.9 µM
same,Activity,[2],18.4 µM
same,"viability at 24 h, 5 µM",[3],107%
same,"viability at 24 h, 20 µM",[4],112%
C=C1C(=O)O[C@@H]2/C=C(\CO[C@@H]3O[C@H](CO)[C@@H](O)[C@H](O)[C@H]3O)CC/C=C(\C)CC[C@@H]12,Activity,[1],20.1 µM
same,Activity,[2],18 µM
same,"viability at 24 h, 5 µM",[3],105%
same,"viability at 24 h, 20 µM",[4],103%
C/C1=C\CC/C(CO[C@@H]2O[C@H](CO)[C@@H](O)[C@H](O)[C@H]2O)=C/[C@H]2OC(=O)[C@@H](C)[C@@H]2CC1,Activity,[1],19.6 µM
same,Activity,[2],18.8 µM
same,"viability at 24 h, 5 µM",[3],113%
same,"viability at 24 h, 20 µM",[4],107%
CNC(=N)NCCC[C@H](N)C(=O)O [TILARGININE],Activity,[1],20.1 µM
same,Activity,[2],14.1 µM
same,"viability at 24 h, 5 µM",[3],112%
same,"viability at 24 h, 20 µM",[4],108%

# — ChEMBL document CHEMBL3621180, “Isolation of two new bioactive sesquiterpene lactone glycosides from the roots of Ixeris dentata” (Bioorg Med Chem Lett, 2015)
